# From patent publication US11738022B2, “Methods for inducing pupil dilation” (THE REGENTS OF THE UNIVERSITY OF COLORADO, A BODY CORPORATE, priority 2017, dated 2023)
# Assays:
# [1] = system: pupil; experiment: Pupil dilation measured with Neuroptics pupillometer after α-2 agonist pre-treatment and/or phenylephrine; type: in vivo, human
# Procedure: Dilation medication used was Phenylephrine hydrochloride 10% (Akorn, Inc). Pupillometer used was a Neuroptics DP-2000 Binocular Pupillometer).
# Dilation using phenylephrine hydrochloride 10% was conducted in both eyes of the test subject to use as a control against the other compounds being tested.
# After this, dilation using phenylephrine hydrochloride 2.5% or phenylephrine hydrochloride 10% was conducted to investigate the effects of the compound on pupil dilation.
# Apracionidine 0.5% was administered in the right eye of the test subject three (3) times a day for 4 days. After this, dilation using phenylephrine hydrochloride 10% was conducted to investigate the effects of the compound on pupil dilation.
# After this, dilation using phenylephrine hydrochloride 10% was conducted to investigate the effects of the compound on pupil dilation.
# A washout period of multiple months was undertaken in between each experiment.
# Pupil measurements were obtained using a Neuroptics pupillometer. Parameters were as follows: Scotopic conditions for 1 second, followed by photopic conditions for 4 seconds (1258.925 lux), followed by scotopic conditions for 10 seconds. This allowed for investigation of scotopic pupil size, photopic pupil size, and scotopic pupil size recovery after the light stimulus concluded.
# The pupils of the subject's pretreated right eye and untreated control left eye were then measured under both scotopic and photopic conditions for baseline measurements (FIG. 6A). Photopic conditions consisted of a 4 second window where a light was shining in both eyes simultaneously. […]
# The experiment was repeated at a higher dosage wherein the subject was administered a second ophthalmic formulation containing 10% phenylephrine to both eyes. 30 minutes after instillation of 10% phenylephrine, the pupils of the subject were then measured under both scotopic and photopic conditions (FIG. 6C). […] Because the area of a circle is dependent on the radius squared (area of a circle=πr^2), the increase in area that is created from a increasing the pupil dilation size is not linear.
# The results were then compared.
# [2] = system: α receptors (α2:α1); settings: affinity ratio; cited from earlier work
# [3] = after pre-treatment of right eye only, 3 times a day for 4 days, before phenylephrine
# [4] = after pre-treatment of right eye only, 3 times a day for 4 days, before phenylephrine, left eye not treated
# [5] = dilation pre and post treatment with α 2 agonist: treated eye vs control measurements of same eye
# [6] = non-treated eye dilation compared to treated eye dilation
# [7] = photopic conditions (1258.925 lux) after dilation with phenylephrine 10%
# [8] = photopic conditions (1258.925 lux) after dilation with phenylephrine 10%, eye without pre-treatment
# [9] = right eye pre-treated 3 times a day for 4 days, then phenylephrine 2.5% both eyes (FIG. 6B)
# [10] = right eye pre-treated 3 times a day for 4 days, then phenylephrine 2.5% both eyes (FIG. 6B), left eye not pre-treated
# [11] = right eye pre-treated 3 times a day for 4 days, then phenylephrine 10% both eyes
# [12] = right eye pre-treated 3 times a day for 4 days, then phenylephrine 10% both eyes, left eye not pre-treated
smiles,measurement,setting,value
"Brc1c(NC2=NCCN2)ccc2nccnc12 [Brimonidine, brimonidine]",dilation speed of pretreated eye vs control eye on return to scotopic conditions,[1]; 30 minutes after 2.5% phenylephrine (FIG. 6B),more rapidly
same,dilation speed of pretreated eye vs control eye upon removal of the light,[1]; 30 minutes after 10% phenylephrine (FIG. 6C),more rapidly
same,average increase in dilation size in the pretreated eye compared to the control eye,[1]; 30 minutes after 10% phenylephrine both eyes (FIG. 6C),36%
same,dilation speed of pretreated eye upon return to scotopic conditions,"[1]; after 4 days pre-treatment, before phenylephrine (FIG. 6A)",much more slowly
same,increase of surgical work area compared to the pre-treatment control dilation amount in the same eye,[1]; after dilation with phenylephrine hydrochloride 10%,approximately 103%
same,CH LStim Ave,[1]; [3],69%
same,CH RPupil Ave,[1]; [3],67%
same,CH RStim Ave,[1]; [3],69%
same,CH Right,[1]; [3],67%
same,CLAT LStim Ave,[1]; [3],0.17 s
same,CLAT RPupil Ave,[1]; [3],0.18 s
same,CLAT RStim Ave,[1]; [3],0.17 s
same,CLAT Right,[1]; [3],0.18 s
same,DELTA LStim Ave,[1]; [3],4.70 mm
same,DELTA RPupil Ave,[1]; [3],4.21 mm
same,DELTA RStim Ave,[1]; [3],4.70 mm
same,DV LStim Ave,[1]; [3],1.02 mm/s
same,DV RPupil Ave,[1]; [3],1.00 mm/s
same,DV RStim Ave,[1]; [3],1.02 mm/s
same,DV Right,[1]; [3],1.00 mm/s
same,MCV LStim Ave,[1]; [3],6.57 mm/s
same,MCV RPupil Ave,[1]; [3],6.76 mm/s
same,MCV RStim Ave,[1]; [3],6.57 mm/s
same,Max LStim Ave,[1]; [3],6.86 mm
same,Max RStim Ave,[1]; [3],6.86 mm
same,Max Right,[1]; [3],6.27 mm
same,Min LStim Ave,[1]; [3],2.16 mm
same,Min RPupil Ave,[1]; [3],2.06 mm
same,Min RStim Ave,[1]; [3],2.16 mm
same,Min Right,[1]; [3],2.06 mm
same,CH LPupil Ave,[1]; [4],70%
same,CH Left,[1]; [4],70%
same,CLAT LPupil Ave,[1]; [4],0.17 s
same,CLAT Left,[1]; [4],0.17 s
same,DELTA Left,[1]; [4],5.21 mm
same,DV Left,[1]; [4],1.05 mm/s
same,MCV Left,[1]; [4],6.38 mm/s
same,Max Left,[1]; [4],7.46 mm
same,Min Left,[1]; [4],2.25 mm
same,Pupil size change (%),[1]; [5],+42.62%
same,Surgical work area change (%),[1]; [5],+103.4%
same,Pupil size change (%),[1]; [6],+35.81%
same,Surgical work area (%),[1]; [6],+84.44%
same,"Pupil size, Treated eye",[1]; [7],5.12 mm
same,"Surgical Work area, Treated eye",[1]; [7],20.58 mm^2
same,"Pupil size, Non-treated eye",[1]; [8],3.77 mm
same,"Surgical Work area, Non-treated eye",[1]; [8],11.16 mm^2
same,dilation of pretreated eye vs control eye,"[1]; photopic conditions, 30 minutes after 2.5% phenylephrine (FIG. 6B)",more dilated
same,dilation of pretreated eye vs control eye,"[1]; photopic conditions, 30 minutes after 10% phenylephrine (FIG. 6C)",much more dilated
same,"pupil area, pre-treated eye","[1]; photopic conditions, after 10% phenylephrine (FIG. 6C)",20.59 mm^2
same,"pupil area, control eye","[1]; photopic conditions, after 10% phenylephrine (FIG. 6C), eye without pre-treatment",11.16 mm^2
same,increase in surgical workspace,"[1]; pre-treated vs control eye, photopic conditions, after 10% phenylephrine",~85%
same,CH LStim Ave,[1]; [9],64%
same,CH RPupil Ave,[1]; [9],61%
same,CH RStim Ave,[1]; [9],64%
same,CH Right,[1]; [9],61%
same,CLAT LStim Ave,[1]; [9],0.19 s
same,CLAT RPupil Ave,[1]; [9],0.19 s
same,CLAT RStim Ave,[1]; [9],0.19 s
same,CLAT Right,[1]; [9],0.19 s
same,DELTA LStim Ave,[1]; [9],4.98 mm
same,DELTA RPupil Ave,[1]; [9],4.70 mm
same,DELTA RStim Ave,[1]; [9],4.98 mm
same,DV LStim Ave,[1]; [9],1.36 mm/s
same,DV RPupil Ave,[1]; [9],1.39 mm/s
same,DV RStim Ave,[1]; [9],1.36 mm/s
same,DV Right,[1]; [9],1.39 mm/s
same,MCV LStim Ave,[1]; [9],6.06 mm/s
same,MCV RPupil Ave,[1]; [9],5.40 mm/s
same,MCV RStim Ave,[1]; [9],6.06 mm/s
same,Max LStim Ave,[1]; [9],7.73 mm
same,Max RStim Ave,[1]; [9],7.73 mm
same,Max Right,[1]; [9],7.69 mm
same,Min LStim Ave,[1]; [9],2.75 mm
same,Min RPupil Ave,[1]; [9],2.99 mm
same,Min RStim Ave,[1]; [9],2.75 mm
same,Min Right,[1]; [9],2.99 mm
same,CH LPupil Ave,[1]; [10],68%
same,CH Left,[1]; [10],68%
same,CLAT LPupil Ave,[1]; [10],0.19 s
same,CLAT Left,[1]; [10],0.19 s
same,DELTA Left,[1]; [10],5.26 mm
same,DV Left,[1]; [10],1.33 mm/s
same,MCV Left,[1]; [10],6.71 mm/s
same,Max Left,[1]; [10],7.77 mm
same,Min Left,[1]; [10],2.51 mm
same,CH LStim Ave,[1]; [11],52%
same,CH RPupil Ave,[1]; [11],46%
same,CH RStim Ave,[1]; [11],52%
same,CH Right,[1]; [11],46%
same,CLAT LStim Ave,[1]; [11],0.22 s
same,CLAT RPupil Ave,[1]; [11],0.20 s
same,CLAT RStim Ave,[1]; [11],0.22 s
same,CLAT Right,[1]; [11],0.20 s
same,DELTA LStim Ave,[1]; [11],4.74 mm
same,DELTA RPupil Ave,[1]; [11],4.28 mm
same,DELTA RStim Ave,[1]; [11],4.74 mm
same,DV LStim Ave,[1]; [11],1.06 mm/s
same,DV RPupil Ave,[1]; [11],1.09 mm/s
same,DV RStim Ave,[1]; [11],1.06 mm/s
same,DV Right,[1]; [11],1.09 mm/s
same,MCV LStim Ave,[1]; [11],4.22 mm/s
same,MCV RPupil Ave,[1]; [11],4.20 mm/s
same,MCV RStim Ave,[1]; [11],4.22 mm/s
same,Max LStim Ave,[1]; [11],9.18 mm
same,Max RStim Ave,[1]; [11],9.18 mm
same,Max Right,[1]; [11],9.40 mm
same,Min LStim Ave,[1]; [11],4.44 mm
same,Min RPupil Ave,[1]; [11],5.12 mm
same,Min RStim Ave,[1]; [11],4.44 mm
same,Min Right,[1]; [11],5.12 mm
same,CH LPupil Ave,[1]; [12],58%
same,CH Left,[1]; [12],58%
same,CLAT LPupil Ave,[1]; [12],0.24 s
same,CLAT Left,[1]; [12],0.24 s
same,DELTA Left,[1]; [12],5.19 mm
same,DV Left,[1]; [12],1.04 mm/s
same,MCV Left,[1]; [12],4.25 mm/s
same,Max Left,[1]; [12],8.96 mm
same,Min Left,[1]; [12],3.77 mm
same,dilation of pretreated eye vs control eye,"[1]; scotopic and photopic conditions, after 4 days pre-treatment, before phenylephrine (FIG. 6A)",less dilated
same,dilation of pretreated eye vs control eye,"[1]; scotopic conditions, 30 minutes after 2.5% phenylephrine (FIG. 6B)",equally dilated
same,dilation of pretreated eye vs control eye,"[1]; scotopic conditions, 30 minutes after 10% phenylephrine (FIG. 6C)",more dilated
same,α2:α1 affinity,[2],976
